Reference: PubChem BioAssay AID1788 (Vanderbilt High Throughput Screening Facility, 2009)
Calls of active or inactive are those of the source. How the calls were made is not given here.

Key:
[1] = system: Transporter, Dopamine (DAT) (human); assay: PubChem AID 1788; details: MDS Pharma lead profiling panel, radioligand binding, at 10 µM, active compounds read high
Purinergic P2Y (rat) = assay: PubChem AID 1788; details: MDS Pharma lead profiling panel, radioligand binding, at 10 µM, active compounds read high
[2] = biological target: Muscarinic acetylcholine receptor M1 (Homo sapiens) (UniProt P11229); assay: PubChem AID 1788; details: MDS Pharma lead profiling panel, radioligand binding, at 10 µM, active compounds read high
Muscarinic acetylcholine receptor M1 (Homo sapiens), sequence (P11229 whole entry, looked up): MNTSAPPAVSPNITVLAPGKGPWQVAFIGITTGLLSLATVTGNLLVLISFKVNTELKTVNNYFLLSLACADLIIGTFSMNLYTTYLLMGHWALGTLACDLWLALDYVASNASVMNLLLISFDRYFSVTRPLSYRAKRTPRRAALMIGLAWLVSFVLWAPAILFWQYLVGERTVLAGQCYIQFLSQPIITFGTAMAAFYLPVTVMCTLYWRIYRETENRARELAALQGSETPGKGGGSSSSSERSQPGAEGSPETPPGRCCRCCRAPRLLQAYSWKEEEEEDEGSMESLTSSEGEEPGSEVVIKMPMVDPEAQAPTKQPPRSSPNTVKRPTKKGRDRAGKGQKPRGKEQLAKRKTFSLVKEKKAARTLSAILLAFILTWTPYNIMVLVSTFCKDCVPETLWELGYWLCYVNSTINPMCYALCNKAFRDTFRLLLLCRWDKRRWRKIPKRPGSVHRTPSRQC

Endothelin ETB (human) = assay: PubChem AID 1788; details: MDS Pharma lead profiling panel, radioligand binding, at 10 µM, active compounds read high
[3] = system: Androgen (testosterone) AR (rat); assay: PubChem AID 1788; details: MDS Pharma lead profiling panel, radioligand binding, at 10 µM, active compounds read high
[4] = system: Vesicular inhibitory amino acid transporter (Rattus norvegicus) + Pro-epidermal growth factor (Homo sapiens) + Acetylcholine receptor subunit alpha (Homo sapiens) + Estrogen receptor (Homo sapiens) + Glucocorticoid receptor (Homo sapiens) + Sodium channel protein type 1 subunit alpha (Rattus norvegicus) + Beta-2 adrenergic receptor (Homo sapiens) + Muscarinic acetylcholine receptor M2 (Homo sapiens) + Beta-1 adrenergic receptor (Homo sapiens) + 5-hydroxytryptamine receptor 1A (Homo sapiens) + Alpha-2A adrenergic receptor (Homo sapiens) + Muscarinic acetylcholine receptor M1 (Homo sapiens) + Interleukin-1 receptor type 1 (Mus musculus) + D(2) dopamine receptor (Homo sapiens) + Androgen receptor (Rattus norvegicus) + Gamma-aminobutyric acid receptor subunit gamma-2 (Rattus norvegicus) + Muscarinic acetylcholine receptor M3 (Homo sapiens) + D(1A) dopamine receptor (Homo sapiens) + D(4) dopamine receptor (Homo sapiens) + Glutamate receptor ionotropic, kainate 1 (Rattus norvegicus) + Sodium-dependent noradrenaline transporter (Homo sapiens) + Endothelin receptor type B (Homo sapiens) + Alpha-1D adrenergic receptor (Homo sapiens) + Endothelin-1 receptor (Homo sapiens) + Substance-P receptor (Homo sapiens) + Neuropeptide Y receptor type 1 (Homo sapiens) + Adenosine receptor A2a (Homo sapiens) + B2 bradykinin receptor (Homo sapiens) + Adenosine receptor A1 (Homo sapiens) + Sodium-dependent serotonin transporter (Homo sapiens) + Neuronal acetylcholine receptor subunit alpha-3 (Homo …; assay: PubChem AID 1788; details: MDS Pharma lead profiling panel, radioligand binding; at 10 µM; active compounds read high
[5] = biological target: Glucocorticoid receptor (Homo sapiens) (UniProt P04150); assay: PubChem AID 1788; details: MDS Pharma lead profiling panel, radioligand binding, at 10 µM, active compounds read high
Glucocorticoid receptor (Homo sapiens), sequence (P04150 whole entry, looked up): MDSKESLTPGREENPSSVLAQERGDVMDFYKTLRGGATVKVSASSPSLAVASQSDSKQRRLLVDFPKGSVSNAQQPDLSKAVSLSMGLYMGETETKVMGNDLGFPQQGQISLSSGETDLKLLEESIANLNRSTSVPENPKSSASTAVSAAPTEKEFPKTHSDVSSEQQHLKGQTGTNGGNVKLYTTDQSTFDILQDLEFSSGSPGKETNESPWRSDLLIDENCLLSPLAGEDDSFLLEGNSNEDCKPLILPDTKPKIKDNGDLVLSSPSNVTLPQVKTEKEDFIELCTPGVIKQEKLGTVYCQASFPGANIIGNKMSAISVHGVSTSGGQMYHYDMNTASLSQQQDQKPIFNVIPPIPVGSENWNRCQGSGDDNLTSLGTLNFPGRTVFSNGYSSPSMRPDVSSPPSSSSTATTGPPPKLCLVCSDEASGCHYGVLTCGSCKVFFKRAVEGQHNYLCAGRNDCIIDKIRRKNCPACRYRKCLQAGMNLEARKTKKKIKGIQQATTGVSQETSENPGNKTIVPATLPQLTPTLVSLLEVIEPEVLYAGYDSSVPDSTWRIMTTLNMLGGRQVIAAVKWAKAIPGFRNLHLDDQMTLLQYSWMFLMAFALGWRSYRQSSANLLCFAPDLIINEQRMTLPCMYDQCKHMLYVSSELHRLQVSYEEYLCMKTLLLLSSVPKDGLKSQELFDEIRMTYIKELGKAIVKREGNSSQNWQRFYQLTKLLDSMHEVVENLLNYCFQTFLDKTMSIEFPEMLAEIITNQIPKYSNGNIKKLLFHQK

[6] = biological target: Kappa-type opioid receptor (Homo sapiens) (UniProt P41145); assay: PubChem AID 1788; details: MDS Pharma lead profiling panel, radioligand binding; Opiate k (OP2, KOP) (human); at 10 µM; active compounds read high
Kappa-type opioid receptor (Homo sapiens), sequence (P41145 whole entry, looked up): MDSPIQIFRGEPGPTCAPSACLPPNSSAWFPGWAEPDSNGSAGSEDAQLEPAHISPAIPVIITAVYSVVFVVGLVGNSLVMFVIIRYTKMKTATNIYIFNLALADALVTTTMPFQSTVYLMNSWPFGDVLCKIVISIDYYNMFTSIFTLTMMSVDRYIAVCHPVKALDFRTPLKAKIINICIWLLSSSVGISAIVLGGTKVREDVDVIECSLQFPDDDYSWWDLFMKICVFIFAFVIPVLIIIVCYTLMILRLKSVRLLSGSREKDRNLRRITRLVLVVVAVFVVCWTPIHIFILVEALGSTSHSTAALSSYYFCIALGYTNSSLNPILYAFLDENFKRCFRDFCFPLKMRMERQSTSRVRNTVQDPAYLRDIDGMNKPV

Glutamate Kainate (rat) = assay: PubChem AID 1788; details: MDS Pharma lead profiling panel, radioligand binding, at 10 µM, active compounds read high
Adrenergic a1B (rat) = assay: PubChem AID 1788; details: MDS Pharma lead profiling panel, radioligand binding, at 10 µM, active compounds read high
Glutamate NMDA (rat) = assay: PubChem AID 1788; details: MDS Pharma lead profiling panel, radioligand binding, at 10 µM, active compounds read high
[7] = system: Sodium Channel, Site 2 (rat); assay: PubChem AID 1788; details: MDS Pharma lead profiling panel, radioligand binding, at 10 µM, active compounds read high
Histamine H3 (human) = assay: PubChem AID 1788; details: MDS Pharma lead profiling panel, radioligand binding, at 10 µM, active compounds read high
[8] = biological target: D(2) dopamine receptor (Homo sapiens) (UniProt P14416); assay: PubChem AID 1788; details: MDS Pharma lead profiling panel, radioligand binding; Dopamine D2S (human); at 10 µM; active compounds read high
D(2) dopamine receptor (Homo sapiens), sequence (P14416 whole entry, looked up): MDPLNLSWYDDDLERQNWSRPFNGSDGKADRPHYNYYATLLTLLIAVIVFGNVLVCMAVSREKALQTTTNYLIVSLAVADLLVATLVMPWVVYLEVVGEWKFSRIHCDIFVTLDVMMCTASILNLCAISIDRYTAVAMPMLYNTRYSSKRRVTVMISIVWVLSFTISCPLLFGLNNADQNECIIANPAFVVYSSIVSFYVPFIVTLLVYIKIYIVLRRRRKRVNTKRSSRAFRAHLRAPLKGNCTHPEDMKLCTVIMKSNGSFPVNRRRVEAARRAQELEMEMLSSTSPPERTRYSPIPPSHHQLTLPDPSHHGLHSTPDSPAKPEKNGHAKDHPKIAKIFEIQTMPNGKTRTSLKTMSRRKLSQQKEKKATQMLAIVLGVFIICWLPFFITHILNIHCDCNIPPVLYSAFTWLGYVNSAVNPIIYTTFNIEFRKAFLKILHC

Prostanoid EP4 (human) = assay: PubChem AID 1788; details: MDS Pharma lead profiling panel, radioligand binding, at 10 µM, active compounds read high
PubChem AID 1788 = details: MDS Pharma lead profiling panel, radioligand binding; GABAA central (rat), Muscimol site; at 10 µM; active compounds read high
Interleukin IL-1 (mouse) = assay: PubChem AID 1788; details: MDS Pharma lead profiling panel, radioligand binding, at 10 µM, active compounds read high
[9] = system: Calcium channel L-type (rat); assay: PubChem AID 1788; details: MDS Pharma lead profiling panel, radioligand binding, dihydropyridine site, at 10 µM, active compounds read high
[10] = biological target: D(1A) dopamine receptor (Homo sapiens) (UniProt P21728); assay: PubChem AID 1788; details: MDS Pharma lead profiling panel, radioligand binding; Dopamine D1 (human); at 10 µM; active compounds read high
D(1A) dopamine receptor (Homo sapiens), sequence (P21728 whole entry, looked up): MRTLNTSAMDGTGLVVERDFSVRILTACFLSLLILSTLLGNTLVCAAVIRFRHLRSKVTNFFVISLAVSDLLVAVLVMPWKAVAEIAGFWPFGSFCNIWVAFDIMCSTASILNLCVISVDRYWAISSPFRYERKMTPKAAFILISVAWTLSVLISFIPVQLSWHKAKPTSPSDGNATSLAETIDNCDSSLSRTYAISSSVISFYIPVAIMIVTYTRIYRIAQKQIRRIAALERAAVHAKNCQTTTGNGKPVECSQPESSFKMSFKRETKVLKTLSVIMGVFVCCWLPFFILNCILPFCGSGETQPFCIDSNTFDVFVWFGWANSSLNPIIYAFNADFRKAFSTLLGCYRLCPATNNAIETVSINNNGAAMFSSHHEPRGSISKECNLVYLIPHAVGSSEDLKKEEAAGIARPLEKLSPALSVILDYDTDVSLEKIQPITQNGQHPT

[11] = system: Transporter, Norepinephrine (NET) (human); assay: PubChem AID 1788; details: MDS Pharma lead profiling panel, radioligand binding, at 10 µM, active compounds read high
[12] = system: Serotonin (5-Hydroxytryptamine) 5-HT3 (human); assay: PubChem AID 1788; details: MDS Pharma lead profiling panel, radioligand binding, at 10 µM, active compounds read high
Thyroid Hormone (rat) = assay: PubChem AID 1788; details: MDS Pharma lead profiling panel, radioligand binding, at 10 µM, active compounds read high
GABA B1A (human) = assay: PubChem AID 1788; details: MDS Pharma lead profiling panel, radioligand binding, at 10 µM, active compounds read high
[13] = biological target: Alpha-2A adrenergic receptor (Homo sapiens) (UniProt P08913); assay: PubChem AID 1788; details: MDS Pharma lead profiling panel, radioligand binding; Adrenergic a2A (human); at 10 µM; active compounds read high
Alpha-2A adrenergic receptor (Homo sapiens), sequence (P08913 whole entry, looked up): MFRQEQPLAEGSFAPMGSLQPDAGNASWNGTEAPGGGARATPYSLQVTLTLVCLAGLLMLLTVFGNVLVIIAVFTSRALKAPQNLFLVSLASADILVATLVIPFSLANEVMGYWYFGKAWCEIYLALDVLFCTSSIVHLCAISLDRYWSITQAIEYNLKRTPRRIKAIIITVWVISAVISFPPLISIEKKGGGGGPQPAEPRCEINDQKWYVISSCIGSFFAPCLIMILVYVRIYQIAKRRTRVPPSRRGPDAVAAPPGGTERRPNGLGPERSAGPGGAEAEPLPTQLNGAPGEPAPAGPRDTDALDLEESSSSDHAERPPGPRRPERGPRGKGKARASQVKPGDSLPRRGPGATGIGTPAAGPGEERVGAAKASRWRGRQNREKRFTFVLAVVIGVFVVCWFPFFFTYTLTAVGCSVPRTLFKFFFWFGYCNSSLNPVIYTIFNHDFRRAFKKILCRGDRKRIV

Transporter, GABA (rat) = assay: PubChem AID 1788; details: MDS Pharma lead profiling panel, radioligand binding, at 10 µM, active compounds read high
[14] = biological target: Neuropeptide Y receptor type 2 (Homo sapiens) (UniProt P49146); assay: PubChem AID 1788; details: MDS Pharma lead profiling panel, radioligand binding; Neuropeptide Y Y2 (human); at 10 µM; active compounds read high
Neuropeptide Y receptor type 2 (Homo sapiens), sequence (P49146 whole entry, looked up): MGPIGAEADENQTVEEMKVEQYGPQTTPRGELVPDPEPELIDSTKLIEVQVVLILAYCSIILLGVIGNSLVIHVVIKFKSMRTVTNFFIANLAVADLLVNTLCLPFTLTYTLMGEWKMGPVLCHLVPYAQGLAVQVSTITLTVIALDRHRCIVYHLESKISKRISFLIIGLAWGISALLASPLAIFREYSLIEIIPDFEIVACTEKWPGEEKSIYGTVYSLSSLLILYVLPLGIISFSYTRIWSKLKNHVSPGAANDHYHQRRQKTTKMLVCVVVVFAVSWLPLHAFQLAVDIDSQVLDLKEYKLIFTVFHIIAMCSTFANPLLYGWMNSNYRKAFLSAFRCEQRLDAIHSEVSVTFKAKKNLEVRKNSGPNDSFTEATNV

Measured: inhibition

CCOC(=O)N1CCC(NCCNC(=O)c2ccccc2C)CC1
inactive: [1] -1% | Purinergic P2Y (rat) -2% | [2] 19% | Endothelin ETB (human) -4% | [3] -2% | [4] -8% | [5] -8% | [6] -2% | Glutamate Kainate (rat) 9% | Adrenergic a1B (rat) 20% | Glutamate NMDA (rat); Glycine site -11% | Glutamate NMDA (rat); Phencyclidine site 7% | Glutamate NMDA (rat); agonism site 13% | [7] -7% | Histamine H3 (human) 11% | [8] 29% | Prostanoid EP4 (human) 3% | PubChem AID 1788 7% | Interleukin IL-1 (mouse) -1% | [9] -8% | [10] 5% | [11] 1% | [12] 2% | Thyroid Hormone (rat) -8% | GABA B1A (human) -22% | [13] 22% | Transporter, GABA (rat) 3% | [14] 12%
